Earlier results as cited in US20220265591A1, “USE OF AN OSMOLYTE IN MANUFACTURE OF A MEDICAMENT FOR TREATMENT OF OCULAR DISORDERS” (SINGAPORE HEALTH SERVICES PTELTD, priority 2019, published 2022).

Tested on: TGFBIp derived peptides
Conditions: 0.001-0.02% (0.03-0.6 mM), close to critical micellar concentration; cited from earlier work

benzalkonium chloride
effect on amyloid fibril formation: accelerated the amyloid fibril formation
